# Results: patent US8791143B2, “Anthranilic diamide derivatives having cyclic side-chains” (priority 2010, dated 2014)
# Where two headings read alike, the source gives them in different places.
# Legend:
# [1] = log P by HPLC on reversed-phase columns (EEC Directive 79/831 Annex V.A8); type: physicochemical
# [2] = tested on: caterpillars of the armyworm (Spodoptera frugiperda); experiment: Spodoptera frugiperda test (SPODFR spray treatment); type: in vivo; details: Spodoptera frugiperda, 168 h, read-out: activity in % (caterpillars killed)
# [3] = tested on: larvae of the mustard beetle (Phaedon cochleariae); experiment: Phaedon test (PHAECO spray treatment); details: Phaedon cochleariae, 168 h, read-out: activity in % (beetle larvae killed)
# [4] = reversed-phase C18 HPLC column, pH 2.7, HPLC reversed-phase C18, acidic range pH 2.7 (HCOOH), only or first value of the cell, read-out: log P
# [5] = application rate 100 g/ha, after 7 days
"chromatographic logP [1, 4]",SMILES,"chromatographic logP ([1]; pH 2.7, log P)",pest or weed control at 100 g/ha [2],pest or weed control at 100 g/ha [3],"pest or weed control at 100 g/ha [2, 5]"
–,Cc1cc(Cl)cc(C(=O)NCc2ccc(F)cc2F)c1NC(=O)c1cc(Cn2nnc(C(F)(F)F)n2)nn1-c1ncccc1Cl [Example 107],3.9,100%,100%,–
4.01,Cc1cc(Cl)cc(C(=O)NCc2ccc(F)c(F)c2F)c1NC(=O)c1cc(Cn2nnc(C(F)(F)F)n2)nn1-c1ncccc1Cl [Example 108],–,–,100%,100%
3.98,Cc1cc(Cl)cc(C(=O)NCc2cc(F)cc(F)c2F)c1NC(=O)c1cc(Cn2nnc(C(F)(F)F)n2)nn1-c1ncccc1Cl [Example 109],–,–,100%,100%
–,Cc1cc(Cl)cc(C(=O)NC(C)c2cccc(Cl)c2)c1NC(=O)c1cc(Cn2nnc(C(F)(F)F)n2)nn1-c1ncccc1Cl (stereo not drawn) [Example 110],4.31,100%,100%,–
–,Cc1cc(Cl)cc(C(=O)NC(C)c2ccc(Cl)cc2)c1NC(=O)c1cc(Cn2nnc(C(F)(F)F)n2)nn1-c1ncccc1Cl (stereo not drawn) [Example 111],4.3,100%,100%,–
–,Cc1ccccc1C(C)NC(=O)c1cc(Cl)cc(C)c1NC(=O)c1cc(Cn2nnc(C(F)(F)F)n2)nn1-c1ncccc1Cl (stereo not drawn) [Example 112],4.2,100%,100%,–
–,Cc1cccc(C(C)NC(=O)c2cc(Cl)cc(C)c2NC(=O)c2cc(Cn3nnc(C(F)(F)F)n3)nn2-c2ncccc2Cl)c1 (stereo not drawn) [Example 113],4.28,100%,100%,–
–,Cc1ccc(C(C)NC(=O)c2cc(Cl)cc(C)c2NC(=O)c2cc(Cn3nnc(C(F)(F)F)n3)nn2-c2ncccc2Cl)cc1 (stereo not drawn) [Example 114],4.24,100%,100%,–
5.06,Cc1cc(Cl)cc(C(=O)NC(C)c2ccc(C(C)(C)C)cc2)c1NC(=O)c1cc(Cn2nnc(C(F)(F)F)n2)nn1-c1ncccc1Cl (stereo not drawn) [Example 115],–,–,100%,100%
–,Cc1cc(Cl)cc(C(=O)NCc2cccc(Cl)c2)c1NC(=O)c1cc(Cn2nnc(C(F)(F)F)n2)nn1-c1ncccc1Cl [Example 116],4.1,100%,100%,–
4.52,Cc1cc(Cl)cc(C(=O)NC(C)c2ccc(OC(F)(F)F)cc2)c1NC(=O)c1cc(Cn2nnc(C(F)(F)F)n2)nn1-c1ncccc1Cl (stereo not drawn) [Example 117],–,–,100%,100%
4.21,Cc1cc(Cl)cc(C(=O)NCc2ccccc2C(F)(F)F)c1NC(=O)c1cc(Cn2nnc(C(F)(F)F)n2)nn1-c1ncccc1Cl [Example 118],–,–,100%,100%
–,Cc1ccccc1CNC(=O)c1cc(Cl)cc(C)c1NC(=O)c1cc(Cn2nnc(C(F)(F)F)n2)nn1-c1ncccc1Cl [Example 119],4.03,100%,100%,–
4.42,Cc1cc(Cl)cc(C(=O)NC(C)c2cccc(C(F)(F)F)c2)c1NC(=O)c1cc(Cn2nnc(C(F)(F)F)n2)nn1-c1ncccc1Cl (stereo not drawn) [Example 120],–,–,100%,100%
4.32,Cc1cc(Cl)cc(C(=O)NC(C)c2ccc(C(F)(F)F)cc2)c1NC(=O)c1cc(Cn2nnc(C(F)(F)F)n2)nn1-c1ncccc1Cl (stereo not drawn) [Example 121],–,–,100%,100%
–,Cc1cc(Cl)cc(C(=O)NC(C)c2ccc(F)cc2)c1NC(=O)c1cc(Cn2nnc(C(F)(F)F)n2)nn1-c1ncccc1Cl (stereo not drawn) [Example 122],4,100%,100%,–
4.35,Cc1cc(Cl)cc(C(=O)NC(C)c2ccccc2C(F)(F)F)c1NC(=O)c1cc(Cn2nnc(C(F)(F)F)n2)nn1-c1ncccc1Cl (stereo not drawn) [Example 123],–,–,100%,100%
4.57,Cc1cc(Cl)cc(C(=O)NC(C)c2cccc(Cl)c2Cl)c1NC(=O)c1cc(Cn2nnc(C(F)(F)F)n2)nn1-c1ncccc1Cl (stereo not drawn) [Example 124],–,–,100%,100%
4.42,Cc1cc(Cl)cc(C(=O)NC(C)c2ccc(Cl)cc2F)c1NC(=O)c1cc(Cn2nnc(C(F)(F)F)n2)nn1-c1ncccc1Cl (stereo not drawn) [Example 125],–,–,100%,100%
4.46,Cc1cc(Cl)cc(C(=O)NCc2ccc(OC(F)(F)F)cc2)c1NC(=O)c1cc(Cn2nnc(C(F)(F)F)n2)nn1-c1ncccc1Cl [Example 126],–,–,100%,100%

"chromatographic logP [1, 4]",SMILES,"chromatographic logP ([1]; pH 2.7, log P)",pest or weed control at 100 g/ha [2],pest or weed control at 100 g/ha [3],"pest or weed control at 100 g/ha [2, 5]"
3.68,COC(=O)c1ccc(CNC(=O)c2cc(Cl)cc(C)c2NC(=O)c2cc(Cn3nnc(C(F)(F)F)n3)nn2-c2ncccc2Cl)cc1 [Example 127],–,–,100%,100%
3.85,Cc1cc(Cl)cc(C(=O)N[C@H](C)c2ccc([N+](=O)[O-])cc2)c1NC(=O)c1cc(Cn2nnc(C(F)(F)F)n2)nn1-c1ncccc1Cl [Example 128],–,–,100%,100%
3.86,Cc1cc(Cl)cc(C(=O)N[C@@H](C)c2ccc([N+](=O)[O-])cc2)c1NC(=O)c1cc(Cn2nnc(C(F)(F)F)n2)nn1-c1ncccc1Cl [Example 129],–,–,100%,100%
4.52,Cc1cc(Cl)cc(C(=O)NCc2ccccc2)c1NC(=O)c1cc(Cn2nc(C(F)(F)F)c(C(F)(F)F)n2)nn1-c1ncccc1Cl [Example 134],–,–,100%,100%
4.15,Cc1cc(C#N)cc(C(=O)NCc2ccccc2)c1NC(=O)c1cc(Cn2nc(C(F)(F)F)c(C(F)(F)F)n2)nn1-c1ncccc1Cl [Example 136],–,–,100%,100%
3.99,Cc1cc(C#N)cc(C(=O)NCc2ccc(Cl)c(Cl)c2)c1NC(=O)c1cc(Cn2nnc(C(F)(F)F)n2)nn1-c1ccccc1Cl [Example 137],–,–,100%,100%
4.67,Cc1cc(Cl)cc(C(=O)NC(C)c2ccc(Cl)cc2Cl)c1NC(=O)c1cc(Cn2nnc(C(F)(F)F)n2)nn1-c1ncccc1Cl (stereo not drawn) [Example 141],–,–,100%,100%
4.58,Cc1cc(Cl)cc(C(=O)NC(C)c2ccc(Cl)c(Cl)c2)c1NC(=O)c1cc(Cn2nnc(C(F)(F)F)n2)nn1-c1ncccc1Cl (stereo not drawn) [Example 142],–,–,100%,100%
–,Cc1cc(Cl)cc(C(=O)NC(C)c2cccc(F)c2)c1NC(=O)c1cc(Cn2nnc(C(F)(F)F)n2)nn1-c1ncccc1Cl (stereo not drawn) [Example 143],4,100%,100%,–
4.58,Cc1cc(Cl)cc(C(=O)NC(C)c2cc(Cl)ccc2Cl)c1NC(=O)c1cc(Cn2nnc(C(F)(F)F)n2)nn1-c1ncccc1Cl (stereo not drawn) [Example 144],–,–,100%,100%
4.84,Cc1cc(I)cc(C(=O)NCc2ccccc2OC(F)(F)F)c1NC(=O)c1cc(Cn2nnc(C(F)(F)C(F)(F)F)n2)nn1-c1ncccc1Cl [Example 146],–,–,100%,100%
4.85,Cc1cc(I)cc(C(=O)NCc2ccc(OC(F)(F)F)cc2)c1NC(=O)c1cc(Cn2nnc(C(F)(F)C(F)(F)F)n2)nn1-c1ncccc1Cl [Example 148],–,–,100%,100%
4.35,Cc1cc(I)cc(C(=O)NCc2ccc(OC(F)F)cc2)c1NC(=O)c1cc(Cn2nnc(C(F)(F)C(F)(F)F)n2)nn1-c1ncccc1Cl [Example 149],–,–,100%,100%
3.92,Cc1cc(F)cc(C(=O)NCc2ccccc2OC(F)(F)F)c1NC(=O)c1cc(Cn2nnc(C(F)(F)F)n2)nn1-c1ncccc1Cl [Example 154],–,–,100%,100%
3.92,Cc1cc(F)cc(C(=O)NCc2ccc(OC(F)(F)F)cc2)c1NC(=O)c1cc(Cn2nnc(C(F)(F)F)n2)nn1-c1ncccc1Cl [Example 155],–,–,100%,100%
4.47,Cc1cc(I)cc(C(=O)NCc2cccc(OC(F)(F)F)c2)c1NC(=O)c1cc(Cn2nnc(C(F)(F)F)n2)nn1-c1ncccc1Cl [Example 156],–,–,100%,100%
4.45,Cc1cc(I)cc(C(=O)NCc2ccccc2OC(F)F)c1NC(=O)c1cc(Cn2nnc(C(F)(F)C(F)(F)F)n2)nn1-c1ncccc1Cl [Example 157],–,–,100%,100%
4,Cc1cc(Cl)cc(C(=O)NCc2ccccc2OC(F)F)c1NC(=O)c1cc(Cn2nnc(C(F)(F)F)n2)nn1-c1ncccc1Cl [Example 158],–,–,100%,100%
3.95,Cc1cc(Cl)cc(C(=O)NCc2cccc(OC(F)F)c2)c1NC(=O)c1cc(Cn2nnc(C(F)(F)F)n2)nn1-c1ncccc1Cl [Example 159],–,–,100%,100%
